From patent US20230049952A1, “METHODS AND COMPOUNDS FOR RESTORING MUTANT P53 FUNCTION” (PMV Pharmaceuticals, Inc., priority 2020, published 2023)

System: NF-κB signaling pathway in MT373 tumors
Assay: MT373 syngeneic sarcoma model: mouse NF-κB signaling pathway profiling panel
Format: in vivo

SMILES: CCn1c(C#CCNc2ccccc2)cc2cc(CNC3CCN(C)CC3)ccc21 [Compound 1, 1-Anilino-3-{1-ethyl-5-[(1-methyl-4-piperidylamino)methyl]-1H-indol-2-yl}-2-propyne]
- Bcl2a1a fold increase over or percent reduction vs vehicle control (150 mg/kg BIDx1, 48 h): 67.64 ± 10.73 fold or %
- Bcl2l1 fold increase over or percent reduction vs vehicle control (150 mg/kg BIDx1, 48 h): 7.49 ± 1.18 fold or %
- Bcl3 fold increase over or percent reduction vs vehicle control (150 mg/kg BIDx1, 48 h): 1.35 ± 0.16 fold or %
- Bcl10 fold increase over or percent reduction vs vehicle control (150 mg/kg BIDx1, 48 h): 36.06 ± 3.54 fold or %
- Birc3 fold increase over or percent reduction vs vehicle control (150 mg/kg BIDx1, 48 h): 1.20 ± 0.28 fold or %
- Card10 fold increase over or percent reduction vs vehicle control (150 mg/kg BIDx1, 48 h): 1.20 ± 0.11 fold or %
- Card11 fold increase over or percent reduction vs vehicle control (150 mg/kg BIDx1, 48 h): 1.67 ± 0.42 fold or %
- Casp1 fold increase over or percent reduction vs vehicle control (150 mg/kg BIDx1, 48 h): 10.29 ± 10.66 fold or %
- Casp8 fold increase over or percent reduction vs vehicle control (150 mg/kg BIDx1, 48 h): 1.02 ± 0.01 fold or %
- Ccl2 fold increase over or percent reduction vs vehicle control (150 mg/kg BIDx1, 48 h): 67.28 ± 5.26 fold or %
- Ccl5 fold increase over or percent reduction vs vehicle control (150 mg/kg BIDx1, 48 h): 8.18 ± 19.38 fold or %
- Cd27 fold increase over or percent reduction vs vehicle control (150 mg/kg BIDx1, 48 h): 1.46 ± 0.26 fold or %
- Cd40 fold increase over or percent reduction vs vehicle control (150 mg/kg BIDx1, 48 h): 39.20 ± 14.39 fold or %
- Cflar fold increase over or percent reduction vs vehicle control (150 mg/kg BIDx1, 48 h): 7.92 ± 8.21 fold or %
- Chuk fold increase over or percent reduction vs vehicle control (150 mg/kg BIDx1, 48 h): 4.04 ± 12.31 fold or %
- Crebbp fold increase over or percent reduction vs vehicle control (150 mg/kg BIDx1, 48 h): 1.12 ± 0.05 fold or %
- Csf1 fold increase over or percent reduction vs vehicle control (150 mg/kg BIDx1, 48 h): 11.36 ± 7.30 fold or %
- Csf2 fold increase over or percent reduction vs vehicle control (150 mg/kg BIDx1, 48 h): 62.24 ± 8.70 fold or %
- Csf3 fold increase over or percent reduction vs vehicle control (150 mg/kg BIDx1, 48 h): 0.37 ± 11.46 fold or %
- Egfr fold increase over or percent reduction vs vehicle control (150 mg/kg BIDx1, 48 h): 24.42 ± 4.76 fold or %
- Egr1 fold increase over or percent reduction vs vehicle control (150 mg/kg BIDx1, 48 h): 42.64 ± 12.12 fold or %
- Eif2ak2 fold increase over or percent reduction vs vehicle control (150 mg/kg BIDx1, 48 h): 1.01 ± 0.03 fold or %
- Elk1 fold increase over or percent reduction vs vehicle control (150 mg/kg BIDx1, 48 h): 11.87 ± 8.21 fold or %
- F2r fold increase over or percent reduction vs vehicle control (150 mg/kg BIDx1, 48 h): 19.79 ± 4.23 fold or %
- Fadd fold increase over or percent reduction vs vehicle control (150 mg/kg BIDx1, 48 h): 7.23 ± 4.56 fold or %
- Fasl fold increase over or percent reduction vs vehicle control (150 mg/kg BIDx1, 48 h): 5.96 ± 19.38 fold or %
- Fos fold increase over or percent reduction vs vehicle control (150 mg/kg BIDx1, 48 h): 47.30 ± 7.08 fold or %
- Hmox1 fold increase over or percent reduction vs vehicle control (150 mg/kg BIDx1, 48 h): 27.03 ± 7.50 fold or %
- Icam1 fold increase over or percent reduction vs vehicle control (150 mg/kg BIDx1, 48 h): 3.83 ± 17.26 fold or %
- Ifng fold increase over or percent reduction vs vehicle control (150 mg/kg BIDx1, 48 h): 43.46 ± 15.02 fold or %
- Ikbkb fold increase over or percent reduction vs vehicle control (150 mg/kg BIDx1, 48 h): 1.24 ± 0.09 fold or %
- Ikbke fold increase over or percent reduction vs vehicle control (150 mg/kg BIDx1, 48 h): 1.71 ± 28.42 fold or %
- Ikbkg fold increase over or percent reduction vs vehicle control (150 mg/kg BIDx1, 48 h): 3.73 ± 5.88 fold or %
- Il1a fold increase over or percent reduction vs vehicle control (150 mg/kg BIDx1, 48 h): 28.88 ± 7.08 fold or %
- Il1b fold increase over or percent reduction vs vehicle control (150 mg/kg BIDx1, 48 h): 18.73 ± 5.15 fold or %
- Il1r1 fold increase over or percent reduction vs vehicle control (150 mg/kg BIDx1, 48 h): 22.37 ± 5.01 fold or %
- Il10 fold increase over or percent reduction vs vehicle control (150 mg/kg BIDx1, 48 h): 1.15 ± 0.09 fold or %
- Irak1 fold increase over or percent reduction vs vehicle control (150 mg/kg BIDx1, 48 h): 1.00 ± 2.36 fold or %
- Irak2 fold increase over or percent reduction vs vehicle control (150 mg/kg BIDx1, 48 h): 17.08 ± 1.54 fold or %
- Irf1 fold increase over or percent reduction vs vehicle control (150 mg/kg BIDx1, 48 h): 7.15 ± 7.58 fold or %
- Jun fold increase over or percent reduction vs vehicle control (150 mg/kg BIDx1, 48 h): 44.92 ± 3.26 fold or %
- Lta fold increase over or percent reduction vs vehicle control (150 mg/kg BIDx1, 48 h): 57.16 ± 12.86 fold or %
- Ltbr fold increase over or percent reduction vs vehicle control (150 mg/kg BIDx1, 48 h): 13.21 ± 2.85 fold or %
- Map3k1 fold increase over or percent reduction vs vehicle control (150 mg/kg BIDx1, 48 h): 1.74 ± 0.24 fold or %
- Mapk3 fold increase over or percent reduction vs vehicle control (150 mg/kg BIDx1, 48 h): 3.13 ± 7.94 fold or %
- Myd88 fold increase over or percent reduction vs vehicle control (150 mg/kg BIDx1, 48 h): 1.17 ± 0.06 fold or %
- Nfkb1 fold increase over or percent reduction vs vehicle control (150 mg/kg BIDx1, 48 h): 1.04 ± 0.04 fold or %
- Nfkb2 fold increase over or percent reduction vs vehicle control (150 mg/kg BIDx1, 48 h): 1.17 ± 0.11 fold or %
- Nfkbia fold increase over or percent reduction vs vehicle control (150 mg/kg BIDx1, 48 h): 1.14 ± 0.15 fold or %
- Nod1 fold increase over or percent reduction vs vehicle control (150 mg/kg BIDx1, 48 h): 1.49 ± 0.08 fold or %
- Raf1 fold increase over or percent reduction vs vehicle control (150 mg/kg BIDx1, 48 h): 0.48 ± 5.31 fold or %
- Rel fold increase over or percent reduction vs vehicle control (150 mg/kg BIDx1, 48 h): 1.30 ± 0.16 fold or %
- Rela fold increase over or percent reduction vs vehicle control (150 mg/kg BIDx1, 48 h): 1.07 ± 0.01 fold or %
- Relb fold increase over or percent reduction vs vehicle control (150 mg/kg BIDx1, 48 h): 1.09 ± 0.07 fold or %
- Ripk1 fold increase over or percent reduction vs vehicle control (150 mg/kg BIDx1, 48 h): 1.19 ± 0.07 fold or %
- Ripk2 fold increase over or percent reduction vs vehicle control (150 mg/kg BIDx1, 48 h): 24.29 ± 6.23 fold or %
- Slc20a1 fold increase over or percent reduction vs vehicle control (150 mg/kg BIDx1, 48 h): 40.28 ± 6.82 fold or %
- Smad3 fold increase over or percent reduction vs vehicle control (150 mg/kg BIDx1, 48 h): 1.04 ± 0.08 fold or %
- Stat1 fold increase over or percent reduction vs vehicle control (150 mg/kg BIDx1, 48 h): 1.36 ± 0.15 fold or %
- Tbk1 fold increase over or percent reduction vs vehicle control (150 mg/kg BIDx1, 48 h): 1.01 ± 6.05 fold or %
- Tlr1 fold increase over or percent reduction vs vehicle control (150 mg/kg BIDx1, 48 h): 1.63 ± 0.28 fold or %
- Tlr2 fold increase over or percent reduction vs vehicle control (150 mg/kg BIDx1, 48 h): 1.24 ± 0.15 fold or %
- Tlr3 fold increase over or percent reduction vs vehicle control (150 mg/kg BIDx1, 48 h): 1.00 ± 1.44 fold or %
- Tlr4 fold increase over or percent reduction vs vehicle control (150 mg/kg BIDx1, 48 h): 6.31 ± 9.66 fold or %
- Tlr6 fold increase over or percent reduction vs vehicle control (150 mg/kg BIDx1, 48 h): 1.33 ± 0.08 fold or %
- Tlr9 fold increase over or percent reduction vs vehicle control (150 mg/kg BIDx1, 48 h): 1.92 ± 0.29 fold or %
- Tnf fold increase over or percent reduction vs vehicle control (150 mg/kg BIDx1, 48 h): 56.86 ± 13.49 fold or %
- Tnfaip3 fold increase over or percent reduction vs vehicle control (150 mg/kg BIDx1, 48 h): 1.26 ± 0.33 fold or %
- Tnfrsf1a fold increase over or percent reduction vs vehicle control (150 mg/kg BIDx1, 48 h): 1.35 ± 0.08 fold or %
- Tnfrsf1b fold increase over or percent reduction vs vehicle control (150 mg/kg BIDx1, 48 h): 1.66 ± 0.08 fold or %
- Tnfrsf10b fold increase over or percent reduction vs vehicle control (150 mg/kg BIDx1, 48 h): 11.34 ± 5.36 fold or %
- Tnfsf10 fold increase over or percent reduction vs vehicle control (150 mg/kg BIDx1, 48 h): 16.58 ± 3.82 fold or %
- Tnfsf14 fold increase over or percent reduction vs vehicle control (150 mg/kg BIDx1, 48 h): 1.53 ± 0.40 fold or %
- Tollip fold increase over or percent reduction vs vehicle control (150 mg/kg BIDx1, 48 h): 2.45 ± 1.53 fold or %
- Tradd fold increase over or percent reduction vs vehicle control (150 mg/kg BIDx1, 48 h): 1.01 ± 0.06 fold or %
- Traf2 fold increase over or percent reduction vs vehicle control (150 mg/kg BIDx1, 48 h): 7.23 ± 7.66 fold or %
- Traf3 fold increase over or percent reduction vs vehicle control (150 mg/kg BIDx1, 48 h): 13.20 ± 10.35 fold or %
- Traf5 fold increase over or percent reduction vs vehicle control (150 mg/kg BIDx1, 48 h): 2.99 ± 3.31 fold or %
- Traf6 fold increase over or percent reduction vs vehicle control (150 mg/kg BIDx1, 48 h): 1.07 ± 0.12 fold or %
- Zap70 fold increase over or percent reduction vs vehicle control (150 mg/kg BIDx1, 48 h): 1.45 ± 0.41 fold or %
- Agt fold increase over or percent reduction vs vehicle control (150 mg/kg BIDx1, 72 h): 2.05 ± 0.66 fold or %
- Akt1 fold increase over or percent reduction vs vehicle control (150 mg/kg BIDx1, 72 h): 1.06 ± 0.07 fold or %
- Atf1 fold increase over or percent reduction vs vehicle control (150 mg/kg BIDx1, 72 h): 34.00 ± 7.86 fold or %
- Atf2 fold increase over or percent reduction vs vehicle control (150 mg/kg BIDx1, 72 h): 8.53 ± 13.61 fold or %
- Bcl2a1a fold increase over or percent reduction vs vehicle control (150 mg/kg BIDx1, 72 h): 48.45 ± 28.65 fold or %
- Bcl2l1 fold increase over or percent reduction vs vehicle control (150 mg/kg BIDx1, 72 h): 1.06 ± 0.18 fold or %
- Bcl3 fold increase over or percent reduction vs vehicle control (150 mg/kg BIDx1, 72 h): 1.22 ± 0.24 fold or %
- Bcl10 fold increase over or percent reduction vs vehicle control (150 mg/kg BIDx1, 72 h): 23.25 ± 7.71 fold or %
- Birc3 fold increase over or percent reduction vs vehicle control (150 mg/kg BIDx1, 72 h): 1.13 ± 0.28 fold or %
